From patent US20080129961A1, “METHOD AND APPARATUS FOR MEASURING QUANTITY OF A FLUOROCHROME IN A BIOLOGICAL ENVIRONMENT” (priority 2006, published 2008)

Legend:
[1] = Solubility and fluorescence behaviour of ICG in serum and vitreous humor
Procedure: ICG (Acros Organics, Fair Lawn, N.J.) was dissolved in PBS, pH 7.4, with 0.1% Tween 20 at 25° C. to make the aqueous standards. Fluorescence of a series of 1:2 dilutions were made with a spectrofluorometer beginning with a maximum concentration of 100 ng/ml down to a “blank” comprising PBS, pH 7.4, with 0.1% Tween with essentially no ICG (only trace amounts).

[2] = pH stability of ICG emission intensity; assay type: physicochemical

CC1(C)C(/C=C/C=C/C=C/C=C2\N(CCCCS(=O)(=O)[O-])c3ccc4ccccc4c3C2(C)C)=[N+](CCCCS(=O)(=O)[O-])c2ccc3ccccc3c21.[Na+] [ICG, indocyanin green]
solubility in serum and vitreous humor after pre-dissolution ([1]; first dissolved in PBS, pH 7.4, 0.1% Tween 20 (≧1000 ng/ml), then mixed with bovine vitreous humor or human serum): remain in solution
spectra and quantum yield in serum and vitreous humor compared to ICG in PBS with 0.1% Tween 20 ([1]; first dissolved in PBS, pH 7.4, 0.1% Tween 20, then mixed with bovine vitreous humor or human serum): maintain its spectra and quantum yield
solubility when mixed directly with serum or vitreous humor ([1]; mixed directly with serum or vitreous humor): not completely soluble
pH range across which emission intensity is stable [2]: 5-10 pH
